In US20200077655A1, “Use of an Acyclic Picolinamide Compound as a Fungicide for Control of Phytopathogenic Fungi in Orchard, Vineyard and Plantation Crops” (Dow AgroSciences LLC, priority 2017, published 2020):

Experiments:
Assay type in all cases: in vivo
[1] = tested on: Monilinia fructicola (MONIFC); experiment: Field assessment on brown rot of fruits on nectarines, harvest and shelf life simulation; conditions: curative; for Percent control based on fruit incidence vs untreated, Harvest: 8 DAAB
Description: A fungicidal treatment containing Compound I, applied in a 5% EC formulation and tank mixed with an adjuvant (Trycol, 50% w/w at 0.2% v/v), was sprayed twice during fruit ripening on the plant canopy of nectarines (PRNPN, Calfornia variety) at rates of 50, 100, and 150 grams of active ingredient per hectare (g ai/ha). The applications were done at 8 day intervals with disease inoculation 12 days before the first application (curative). The treatment was part of an experimental trial designed as a randomized complete block with four replications and a plot of approximately 4.3×6.0 m, with compound I being applied using a MISTBLOW, Solo backpack applicator at a water volume of 800 L/ha.
The pathogen was certified to be Monilinia fructicola (MONIFC) by means of an immunoassay followed by a PCR assay on material collected (mummies) from the trial. The brown rot disease at harvest was evaluated on 100 randomly picked fruits per plot, 8 days after application B (8 DAAB), calculating the incidence of fruit with disease and then the percent control using Abbotts. Visually healthy samples of 60 fruits per plot were then placed in alveolus plates and kept for 5 days in cold storage. The samples were then maintained for […] at about 20° C. (shelf life period). Several assessments were made to check the development of disease during the shelf life simulation. In particular, the percentage of rotten fruits were checked at the exit from cold storage (after 5 days of refrigeration, 13 DAAB) followed by 15, 17, 20 and 23 DAAB. Percent of fruit with disease was calculated (incidence) amd then percent control was calculated using Abbotts.

[2] = tested on: Rhizopus stolonifer (RIZPST); experiment: Field microplot assessment on Rhizopus rot on peaches; conditions: field grown peaches, 17 days after first application
Capnodium sp. (CAPDSP) = experiment: Field assessment of sooty mold on pears
Description: A 10% SC formulation of Compound I was tank mixed with three different adjuvants: Agnique BP420 (50% w/w at 0.3% v/v), Ethomeen T18H (50% w/w at 0.15% v/v) and Trycol (50% w/w at 0.3% v/v). Formulations of compound I were sprayed on the plant canopy of pear trees (Highland variety) of approximately 2.5 m in height at rates of 100, 150 and 200 grams of active ingredient per hectare (g ai/ha). The trial was based on six foliar applications during the growing season at approximately 12 day intervals with natural pear scab and sooty mold infections in open field conditions. The treatment was part of an experimental trial designed as a randomized complete block with four replications and a plot of approximately 3×5 m. Formulations of compound I were applied with a SOLO mistblower sprayer at a water volume of 1500 L/ha.
For VENTPI evaluation, percent control was calculated based on incidence and severity in fruit assessment vs the nontreated control on a random selection of 50 fruits per plot. […] Percent control for both diseases was calculated at 11DAAE, 7DAAF and 15DAAF.

[3] = tested on: Mycosphaerella fijiensis (MYCOFI); experiment: Field assessment of black sigatoka on banana; conditions: bananas; for Area Under Disease Progression Curve (AUDPC) from severity assessments: 52-59 days after application; for Percent control calculated from severity percentage: 52 days after application
Method: Aliquots of a 5% EC formulation of compound I were diluted with water and mixed with Spraytex CT mineral oil (6 L CP/Ha) to achieve active ingredient rates of 25, 50, 100 and 150 g ai/Ha. These treatments were delivered to the foliar affected area of single leaves (application volume of 40 L/Ha) by means of an Aerograph spayer through a plastic molding with an application area of 9×12 centimeters. A single application was delivered to leaf 1 (preventive and very early curative), and leaf 3 (curative effect). Experimental design was based on a randomized complete block, and 4 replications. MYCOFI symptoms resulted from natural inoculation and epidemic development.
Percent disease control was calculated using the ratio of disease severity on treated leaves relative to untreated leaves. Black sigatoka infection was assessed five times during the trial: 31 days after application (31DAA), 38DAA, 45DAA, 52DAA and 59DAA. Area under the disease progress curve (AUDPC) was calculated for each plot using the sets of recorded severity data. Relative AUDPC (% control based on AUDPC) was calculated as percent of the nontreated control.

[4] = tested on: Tranzschelia discolor (TRANDI); experiment: Field assessment of rust in almond; conditions: untreated 61.3
Description: A fungicidal treatment containing Compound I, applied in an SC formulation (MSO-buit in) and tank mixed with an adjuvant (Adsee C80W 80%), was sprayed on almond trees (PRNDU, Butte variety) with 2 applications at growth stages BBCH67-69 and BBCH69-72 at rates of 60, 120, 150, and 180 g ai/ha. The experimental plots were run under natural infestation. The treatments were part of an experimental trial designed as a randomized complete block (RCB) with three replications and a plot of approximately 16×22 ft. Compound I was applied at water volume of 100 gal/acre, using a motorized backpack sprayer.
Percent leaf incidence (calculated from number of visual diseased leaves per 50 leaves per one tree) was assessed and recorded at 105 days after application A (105 DAAA).

COc1ccnc(C(=O)N[C@@H](C)C(=O)O[C@@H](C)C(c2ccc(F)cc2)c2ccc(F)cc2)c1OC(C)=O [Compound I, (S)-1,1-bis(4-fluorophenyl)propan-2-yl (3-acetoxy-4-methoxypicolinoyl)-L-alaninate]
Percent control based on fruit incidence vs untreated, Shelf Life Simulation ([1]; 50 g ai/ha): C (26-50) | Percent control based on fruit incidence vs untreated, Harvest ([1]; 50 g ai/ha): B (51-75) | Percent control based on fruit incidence vs untreated, Shelf Life Simulation ([1]; 100 g ai/ha): C (26-50) | Percent control based on fruit incidence vs untreated, Harvest ([1]; 100 g ai/ha): B (51-75) | Percent control based on fruit incidence vs untreated, Shelf Life Simulation ([1]; 150 g ai/ha): B (51-75) | Percent control based on fruit incidence vs untreated, Harvest ([1]; 150 g ai/ha): B (51-75) | RIZPST, percentage of diseased peaches (Incidence) ([2]; 50 g ai/ha): 67.5% | RIZPST, percentage of diseased peaches (Incidence) ([2]; 100 g ai/ha): 22.5% | RIZPST, percentage of diseased peaches (Incidence) ([2]; 150 g ai/ha): 35.0% | Percent control CAPDSP, incidence in leaf assessment (Capnodium sp. (CAPDSP); 100 g ai/ha, adjuvant Agnique BP420 (first such line, r11), 15 days after final application): A (76-100) | Percent control CAPDSP, incidence in leaf assessment (Capnodium sp. (CAPDSP); 100 g ai/ha, adjuvant Agnique BP420 (second such line, r13), 15 days after final application): A (76-100) | Percent control CAPDSP, incidence in leaf assessment (Capnodium sp. (CAPDSP); 100 g ai/ha, adjuvant ETHOMEEN, 15 days after final application): A (76-100) | Percent control CAPDSP, incidence in leaf assessment (Capnodium sp. (CAPDSP); 100 g ai/ha, adjuvant None, 15 days after final application): A (76-100) | Percent control CAPDSP, incidence in leaf assessment (Capnodium sp. (CAPDSP); 100 g ai/ha, adjuvant Trycol, 15 days after final application): A (76-100) | Percent control CAPDSP, incidence in leaf assessment (Capnodium sp. (CAPDSP); 200 g ai/ha, adjuvant Agnique BP420, 15 days after final application): A (76-100) | Area Under Disease Progression Curve (AUDPC) from severity assessments ([3]; Leaf 1 (Preventive), 25 g ai/ha, untreated 665): 198 | Percent control calculated from severity percentage ([3]; Leaf 1 (Preventive), 25 g ai/ha): B (51-75) | Area Under Disease Progression Curve (AUDPC) from severity assessments ([3]; Leaf 1 (Preventive), 50 g ai/ha, untreated 665): 211 | Percent control calculated from severity percentage ([3]; Leaf 1 (Preventive), 50 g ai/ha): B (51-75) | Area Under Disease Progression Curve (AUDPC) from severity assessments ([3]; Leaf 1 (Preventive), 100 g ai/ha, untreated 665): 203 | Percent control calculated from severity percentage ([3]; Leaf 1 (Preventive), 100 g ai/ha): B (51-75) | Area Under Disease Progression Curve (AUDPC) from severity assessments ([3]; Leaf 1 (Preventive), 150 g ai/ha, untreated 665): 183 | Percent control calculated from severity percentage ([3]; Leaf 1 (Preventive), 150 g ai/ha): B (51-75) | Area Under Disease Progression Curve (AUDPC) from severity assessments ([3]; Leaf 3 (Curative), 25 g ai/ha, untreated 464): 357 | Percent control calculated from severity percentage ([3]; Leaf 3 (Curative), 25 g ai/ha): C (26-50) | Area Under Disease Progression Curve (AUDPC) from severity assessments ([3]; Leaf 3 (Curative), 50 g ai/ha, untreated 464): 317 | Percent control calculated from severity percentage ([3]; Leaf 3 (Curative), 50 g ai/ha): C (26-50) | Area Under Disease Progression Curve (AUDPC) from severity assessments ([3]; Leaf 3 (Curative), 100 g ai/ha, untreated 464): 289 | Percent control calculated from severity percentage ([3]; Leaf 3 (Curative), 100 g ai/ha): C (26-50) | Area Under Disease Progression Curve (AUDPC) from severity assessments ([3]; Leaf 3 (Curative), 150 g ai/ha, untreated 464): 293 | Percent control calculated from severity percentage ([3]; Leaf 3 (Curative), 150 g ai/ha): C (26-50) | Percent Visual Leaf Incidence of TRANDI 89 DAAB ([4]; 60 g ai/ha, MSO, 120 g ai/ha): 13.3% | Percent Visual Leaf Incidence of TRANDI 89 DAAB ([4]; 120 g ai/ha, Adsee C80W, 300 g ai/ha): 11.3% | Percent Visual Leaf Incidence of TRANDI 89 DAAB ([4]; 120 g ai/ha, MSO, 240 g ai/ha): 9.3% | Percent Visual Leaf Incidence of TRANDI 89 DAAB ([4]; 150 g ai/ha, MSO, 300 g ai/ha): 6.0% | Percent Visual Leaf Incidence of TRANDI 89 DAAB ([4]; 180 g ai/ha, MSO, 360 g ai/ha): 6.0%
